# Assay results reported in article PMC3735853 (Journal of biomolecular screening, 2013).
# Read-outs that look alike come from different tables or passages of the source.
# Columns and labels:
# hV2R[L^83Q] = hV2R[L^83Q] (Homo sapiens, UniProt P30518, L83Q); assay: uHTS optimized primary V2R pharmacoperone assay; format: cell-based; details: for LOPAC Screen Average %Response +/−Std Dev: single concentration of 6 μM (0.4% DMSO), normalized to 100 nM SR121463 (positive) and DMSO (negative), triplicate
# V2R = details: cited from earlier work
Compound,LOPAC Screen Average %Response +/−Std Dev (hV2R[L^83Q]),EC50 (hV2R[L^83Q]) [nM],lowest level detectable in the assay system (hV2R[L^83Q]; no-wash protocol) [nM],"EC50 (hV2R[L^83Q]; read-out: EC50 (pharmacoperone rescue), presence of 1 μM vasopressin, no-wash protocol, absence of doxycycline (n=4)) [nM]","Ki (V2R; read-out: Ki (antagonist), no reference given) [nM]","Ki (V2R; read-out: Ki of SR121463 (literature value), used to perform the fit) [nM]"
"Cc1ccccc1N1CCN(S(=O)(=O)C[C@]23CC[C@H](C[C@@H]2NC(=O)[C@@H](N)CCS(C)(=O)=O)C3(C)C)CC1 [L-368,899]",74+/−2%,–,–,–,–,–
C=C[C@@]1(C)CC(=O)[C@]2(O)[C@@]3(C)[C@@H](O)CCC(C)(C)[C@@H]3[C@H](O)[C@H](OC(C)=O)[C@@]2(C)O1 [Forskolin],104+/−0%,430,–,–,–,–
CCOc1ccc2c(c1)C1(CCC(OCCN3CCOCC3)CC1)C(=O)N2S(=O)(=O)c1ccc(C(=O)NC(C)(C)C)cc1OC (stereo not drawn) [SR121463],–,–,1,1.97 ± 0.25,~1,0.94
C[C@H]1CCC/C=C/[C@@H]2C[C@H](O)C[C@H]2[C@H](O)/C=C/C(=O)O1 [Brefeldin A],43+/−1%,270,–,–,–,–
